Experimental data taken from patent US10975056B2 (GlaxoSmithKline Intellectual Property Development Limited, priority 2016, dated 2021).
Where “and” joins values, the source holds several entries; their conditions need not be identical. Equal entries are not always repeated. Where two headings read alike, the source gives them in different places.

Key:
DNMT1 = DNMT1 (Homo sapiens, UniProt P26358); assay: DNMT1 biochemical activity, breaklight assay and/or SPA assay
[1] = system: erythroid progenitor cells (EPCs); assay: Fetal hemoglobin (HbF) ELISA in day 7 erythroid progenitor cells; format: cell-based, human; conditions: Homo sapiens, Erythroid progenitor cell, HbF ELISA, day 7 EPCs, 5 days; read-out: EPC ELISA (pEC50 category) (converted)
Description: Day 7 EPCs were cultured in duplicate plates with serially diluted Compound A for 5 days at 37° C. Wells were then analyzed for either induction of fetal hemoglobin (HbF,HbF ELISA) or cell growth (Cell Titer-Glo). In both cases, signal was normalized to vehicle-control treated cells.
Culture, Expansion, and Characterization of Day 7 Erythroid Progenitor Cells (EPC)s
All donors provided written informed consent for use of their samples, and the collection and use of the samples received institutional review board approval. All cryopreserved human bone marrow CD34+ cells used here were obtained from AlICells (Emeryville, Calif.) and were generally from different donors. The CD34+ cells were cultured to generate EPCs at day 7. Briefly, 1 million cells were cultured in 5% CO2, 5% O2 at 37° C. in H3000 Stemspan media (StemCell Technologies Vancouver, BC, Canada) supplemented with 2 mM L-glutamine, 40 μg/mL human low-density lipoproteins (StemCell Technologies), 10 ng/mL recombinant human (rh) interleukin IL-3 (R&D Systems, Minneapolis, Minn.), 100 ng/mL rh stem cell factor (R&D Systems), and 0.5 U/mL rh erythropoietin (Invitrogen, Grand Island, N.Y.). Cells were split and refed on day 4 with complete culture media described above and harvested on day 7 for evaluation of erythroid marker expression and assessment of γ-globin induction. Day 7 EPCs were then frozen in liquid nitrogen at 5 to 10 million cells/mL in 95% fetal bovine serum (FBS; Invitrogen) with 5% DMSO for subsequent use.
At the time of compound treatment, frozen day 7 EPCs prepared as described above were thawed, washed once and re-suspended in complete culture media as described above with the exception of an increase of rhEPO to 3 U/mL. Cells were counted and diluted to […] for plating into assay plates. Cells were then dispensed, at 30 μL per well with Multidrop™ Combi Reagent Dispenser (Thermo Scientific), into 384-well cell culture plates into which test compounds were pre-dispensed at 100 nL/well. Black Clear Bottom (Greiner Bio-One; 781090) and White (Greiner Bio-One; 781080) plates were used for ELISA and Cell Titer-Glo assays, respectively. The final cell density in the assays is 1,000 cells per well, with final compound concentrations between 33 nM (highest) and […] (lowest) for the 22-points serial dilution.
Fetal Hemoglobin (HbF) ELISA
Coating anti-HbF Ab (Bethyl Lab; cat. A80-136A) was diluted by 100-fold in the coating buffer (0.05 M carbonate-bicarbonate, pH 9.6), and then 20 μL/well was added to a 384-well MaxiSorp ELISA plate (Thermo Fisher; cat. 464718). After 1 hour incubation at room temperature, the plates were washed twice with ELISA washing buffer (50 mM Tris, 0.05% Tween 20, pH 8.0) with an EL406 plate washer (BioTek, Winooski, Vt.). Then, 40 μL/well of blocking buffer consisting of 50 mM Tris and 1% BSA (pH 8.0) was added to the plate and stored at 4° C. with cover sheet overnight, or until time of the assay. The coated ELISA plates were stable for up to 30 days at 4° C. On the day of assay, the plates were washed twice with ELISA washing buffer prior to addition of cell lysate.
After 5 days at 37° C. with 5% CO2 cell culture plates for ELISA assay were put into −80° C. freezer for a minimum of 2 hours. After thawing at room temperature, 30 μL of cell lysis buffer (Invitrogen; cat. FNN0011, supplemented with 1× protease inhibitor) was added to each well and the resulting cell lysate was mixed eight times with a Cybi-Well (Jena, Germany) pipettor. Following the mixing procedure, 20 μL/well of lysate was transferred to the coated ELISA plates described above followed by a 1 hour incubation at room temperature. The ELISA assay plates were washed three times with ELISA wash buffer. 20 μL per well of 1:75,000 to 100,000 diluted horseradish peroxidase (HRP) conjugate detection antiHbF Ab (Bethyl Labs; cat. A80-136P, diluted in 50 mM Tris [pH 8.0], 1% BSA, 0.05% Tween-20) was then added. […]

[2] = binned activity in either the breaklight or the SPA assay
[3] = binned activity in either the breaklight or the SPA assay, read-out: DNMT1 BioChemical (pIC50 category) (converted)
[4] = breaklight assay and/or SPA assay, repeated experimental runs, read-out: average pIC50 against DNMT1 (converted)

Sequence of DNMT1 (P26358 whole entry, looked up): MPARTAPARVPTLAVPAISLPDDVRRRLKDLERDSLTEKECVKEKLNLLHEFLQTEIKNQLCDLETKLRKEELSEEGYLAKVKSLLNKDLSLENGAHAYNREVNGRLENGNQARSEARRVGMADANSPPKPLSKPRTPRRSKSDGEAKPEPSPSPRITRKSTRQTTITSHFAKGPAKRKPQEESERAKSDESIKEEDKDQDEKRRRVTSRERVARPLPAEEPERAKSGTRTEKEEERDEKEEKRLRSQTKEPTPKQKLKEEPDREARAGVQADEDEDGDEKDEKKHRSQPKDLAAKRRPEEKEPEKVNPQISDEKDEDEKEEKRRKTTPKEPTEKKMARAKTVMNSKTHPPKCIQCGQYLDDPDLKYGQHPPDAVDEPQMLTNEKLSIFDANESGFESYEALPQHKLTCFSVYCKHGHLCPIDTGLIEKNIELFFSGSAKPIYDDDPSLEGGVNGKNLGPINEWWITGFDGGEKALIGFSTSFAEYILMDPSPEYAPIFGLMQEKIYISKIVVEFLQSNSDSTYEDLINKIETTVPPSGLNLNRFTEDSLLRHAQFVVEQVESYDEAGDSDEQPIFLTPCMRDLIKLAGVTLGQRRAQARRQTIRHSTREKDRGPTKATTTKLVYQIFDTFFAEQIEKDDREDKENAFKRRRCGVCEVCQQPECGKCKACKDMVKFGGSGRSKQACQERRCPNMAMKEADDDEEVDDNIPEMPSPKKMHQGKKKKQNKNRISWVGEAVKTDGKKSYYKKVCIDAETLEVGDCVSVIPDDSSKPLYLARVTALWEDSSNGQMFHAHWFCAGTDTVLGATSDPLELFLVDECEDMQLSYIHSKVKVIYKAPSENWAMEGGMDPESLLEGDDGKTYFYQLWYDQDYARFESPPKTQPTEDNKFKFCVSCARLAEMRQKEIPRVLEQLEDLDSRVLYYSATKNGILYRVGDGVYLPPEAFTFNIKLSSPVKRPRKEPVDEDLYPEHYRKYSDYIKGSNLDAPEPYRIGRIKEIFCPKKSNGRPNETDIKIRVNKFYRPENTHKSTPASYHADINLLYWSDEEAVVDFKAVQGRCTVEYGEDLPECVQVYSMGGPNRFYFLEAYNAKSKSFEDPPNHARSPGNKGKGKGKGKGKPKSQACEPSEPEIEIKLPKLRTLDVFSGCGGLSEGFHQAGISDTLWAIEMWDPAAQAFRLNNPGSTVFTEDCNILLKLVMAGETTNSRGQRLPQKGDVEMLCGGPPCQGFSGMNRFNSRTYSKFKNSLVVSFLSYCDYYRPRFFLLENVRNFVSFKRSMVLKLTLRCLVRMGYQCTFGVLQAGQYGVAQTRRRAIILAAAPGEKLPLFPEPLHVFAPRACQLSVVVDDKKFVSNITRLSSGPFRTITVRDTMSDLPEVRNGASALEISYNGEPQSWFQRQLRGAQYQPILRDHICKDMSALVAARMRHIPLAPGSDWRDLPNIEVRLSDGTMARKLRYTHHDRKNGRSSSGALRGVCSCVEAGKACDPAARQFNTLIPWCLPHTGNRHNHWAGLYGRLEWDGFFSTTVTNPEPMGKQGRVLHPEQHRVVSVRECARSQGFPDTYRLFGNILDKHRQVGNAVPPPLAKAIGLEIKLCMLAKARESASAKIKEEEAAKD

`CCc1c(C#N)c(SC(C(N)=O)c2ccccc2)nc(N2CCO[C@@H](CN)C2)c1C#N` (stereo partly drawn) [Example 586, 2-((6-((S)-2-(aminomethyl)morpholino)-3,5-dicyano-4-ethylpyridin-2-yl)thio)-2-phenylacetamide] was tested, and the “DNMT1 BioChemical (pIC50 category)” value (DNMT1; [2]) was “D (Category D: ≥6.5)” and the EC50 [1] was < 0.316 µM.

For `CCc1c(C#N)c(SC(C(N)=O)c2ccccc2)nc(N2CCC(N3CCC(F)(F)C3)CC2)c1C#N` (stereo not drawn) [Example 496, 2-((3,5-dicyano-6-(4-(3,3-difluoropyrrolidin-1-yl)piperidin-1-yl)-4-ethylpyridin-2-yl)thio)-2-phenylacetamide], the IC50 (DNMT1; [3]) was 0.316 to 1 µM, the IC50 (DNMT1; [4]) was 0.316 to 1 µM and 0.398 µM and the EC50 [1] was < 0.316 µM.

In the case of `CCc1c(C#N)c(S[C@@H](C(N)=O)c2ccccc2)nc(N(C)CCO)c1C#N` (single isomer, unassigned) [Example 431], the “DNMT1 BioChemical (pIC50 category)” value (DNMT1; [2]) is reported as “D (Category D: ≥6.5)” and the EC50 [1] is reported as < 0.316 µM.

In the case of `CN1CCN(c2nc(SC(C(N)=O)c3ccccc3)c(C#N)c(C3CC3)c2C#N)CCC1=O` (stereo not drawn) [Example 109, 2-{[3,5-Dicyano-4-cyclopropyl-6-(4-methyl-5-oxo-1,4-diazepan-1-yl)pyridin-2-yl]sulfanyl}-2-phenylacetamide], the IC50 (DNMT1; [3]) is reported as 0.316 to 1 µM, the IC50 (DNMT1; [4]) is reported as ≥ 1 µM and the EC50 [1] is reported as < 0.316 µM.

With `CCc1c(C#N)c(SCc2ccc(N(C)S(C)(=O)=O)cc2)nc(N2CCC(NC(=O)[C@H](C)N)CC2)c1C#N` [Example 585, (S)-2-amino-N-(1-(3,5-dicyano-4-ethyl-6-((4-(N-methylmethylsulfonamido)benzyl)thio)pyridin-2-yl)piperidin-4-yl)propanamide] the “DNMT1 BioChemical (pIC50 category)” value (DNMT1; [2]) was “D (Category D: ≥6.5)” and the EC50 [1] was < 0.316 µM.

`CCc1c(C#N)c(S[C@@H](C(N)=O)c2ccc(F)cc2F)nc(N2CC[C@H](O)C2)c1C#N` [Example 674, (R)-2-((3,5-dicyano-4-ethyl-6-((S)-3-hydroxypyrrolidin-1-yl)pyridin-2-yl)thio)-2-(2,4-difluorophenyl)acetamide] was tested, and the “DNMT1 BioChemical (pIC50 category)” value (DNMT1; [2]) was “D (Category D: ≥6.5)” and the EC50 [1] was 1 to 31.6 µM.

In the case of `CCc1c(C#N)c(SCc2ccc(CNC(=O)CN)cc2)nc(N2CCCN(C)CC2)c1C#N` [Example 80, 2-Amino-N-(4-(((3,5-dicyano-4-ethyl-6-(4-methyl-1,4-diazepan-1-yl)pyridin-2-yl)thio)methyl)benzyl)acetamide], the “DNMT1 BioChemical (pIC50 category)” value (DNMT1; [2]) is reported as “D (Category D: ≥6.5)”, the “average pIC50 against DNMT1” value (DNMT1; breaklight assay and/or SPA assay, repeated experimental runs) is reported as > 6.5 and the EC50 [1] is reported as 0.316 to 1 µM.

`CCc1c(C#N)c(S[C@@H](C(N)=O)c2ccc(Cl)cc2)nc(N2CC[C@H](O)C2)c1C#N` [Example 424, (R)-2-(4-chlorophenyl)-2-((3,5-dicyano-4-ethyl-6-((S)-3-hydroxypyrrolidin-1-yl)pyridin-2-yl)thio)acetamide] was tested, and the “DNMT1 BioChemical (pIC50 category)” value (DNMT1; [2]) was “D (Category D: ≥6.5)” and the EC50 [1] was 0.316 to 1 µM.

For `CCc1c(C#N)c(SC(C(N)=O)c2ccccc2)nc(N2CCC[C@@H](CNC(=O)CN)C2)c1C#N` (stereo partly drawn) [Example 589, 2-amino-N-(((3S)-1-(6-((2-amino-2-oxo-1-phenylethyl)thio)-3,5-dicyano-4-ethylpyridin-2-yl)piperidin-3-yl)methyl)acetamide], the “DNMT1 BioChemical (pIC50 category)” value (DNMT1; [2]) was “D (Category D: ≥6.5)” and the EC50 [1] was 0.316 to 1 µM.

With `COc1c(C#N)c(SC(C(N)=O)c2ccccc2)nc(N2CCCN(CCO)CC2)c1C#N` (stereo not drawn) [Example 142, 2-((3,5-Dicyano-6-(4-(2-hydroxyethyl)-1,4-diazepan-1-yl)-4-methoxypyridin-2-yl)thio)-2-phenylacetamide] the “DNMT1 BioChemical (pIC50 category)” value (DNMT1; [2]) was “D (Category D: ≥6.5)” and the EC50 [1] was 0.316 to 1 µM.

`N#Cc1c(SC(C(N)=O)c2ccccc2)nc(N2CCC(CN3CCCC3)CC2)c(C#N)c1C1CC1` (stereo not drawn) [Example 39, 2-((3,5-Dicyano-4-cyclopropyl-6-(4-(pyrrolidin-1-ylmethyl)piperidin-1-yl)pyridin-2-yl)thio)-2-phenylacetamide] was tested, and the “DNMT1 BioChemical (pIC50 category)” value (DNMT1; [2]) was “D (Category D: ≥6.5)” and the EC50 [1] was < 0.316 µM.

Compound `CCc1c(C#N)c(SCc2ccc3[nH]ccc3c2)nc(N2CCC(N3CCCC3)CC2)c1C#N` [Example 344, 2-(((1H-Indol-5-yl)methyl)thio)-4-ethyl-6-(4-(pyrrolidin-1-yl)piperidin-1-yl)pyridine-3,5-dicarbonitrile] has an IC50 (DNMT1; [3]) of 0.316 to 1 µM and an EC50 [1] of 1 to 31.6 µM.

With `CCc1c(C#N)c(SC(C(N)=O)c2ccccc2)nc(N2CCC[C@@H](CN)C2)c1C#N` (stereo partly drawn) [Example 576, 2-((6-((S)-3-(aminomethyl)piperidin-1-yl)-3,5-dicyano-4-ethylpyridin-2-yl)thio)-2-phenylacetamide] the IC50 (DNMT1; [3]) was < 0.316 µM and the EC50 [1] was < 0.316 µM.

For `CCc1c(C#N)c(SC(C(N)=O)c2ccccc2)nc(N2CCCC(CNC)C2)c1C#N` (stereo not drawn) [Example 566, 2-((3,5-dicyano-4-ethyl-6-(3-((methylamino)methyl)piperidin-1-yl)pyridin-2-yl)thio)-2-phenylacetamide], the “DNMT1 BioChemical (pIC50 category)” value (DNMT1; [2]) was “D (Category D: ≥6.5)” and the EC50 [1] was < 0.316 µM.

With `CCc1c(C#N)c(SC(C(N)=O)c2ccccc2)nc(N2CCC[C@H](NC3CC3)C2)c1C#N` (stereo partly drawn) [Example 684, 2-((3,5-dicyano-6-((S)-3-(cyclopropylamino)piperidin-1-yl)-4-ethylpyridin-2-yl)thio)-2-phenylacetamide] the “DNMT1 BioChemical (pIC50 category)” value (DNMT1; [2]) was “D (Category D: ≥6.5)” and the EC50 [1] was < 0.316 µM.

In the case of `CCc1c(C#N)c(SC(C(N)=O)c2ccc(F)cc2)nc(N2CCC(NCC(C)(C)O)CC2)c1C#N` (stereo not drawn) [Example 513, 2-((3,5-dicyano-4-ethyl-6-(4-((2-hydroxy-2-methylpropyl)amino)piperidin-1-yl)pyridin-2-yl)thio)-2-(4-fluorophenyl)acetamide], the IC50 (DNMT1; [3]) is reported as < 0.316 µM and the EC50 [1] is reported as < 0.316 µM.

`CSc1c(C#N)c(SC(C(N)=O)c2ccccc2)nc(N2CCCN(C)CC2)c1C#N` (stereo not drawn) [Example 202, 2-((3,5-Dicyano-6-(4-methyl-1,4-diazepan-1-yl)-4-(methylthio)pyridin-2-yl)thio)-2-phenylacetamide] was tested, and the IC50 (DNMT1; [3]) was 0.316 to 1 µM and the EC50 [1] was 0.316 to 1 µM.

With `CCc1c(C#N)c(SC(C(N)=O)c2ccccc2)nc(N2CCC(N3C(=O)CCC3=O)CC2)c1C#N` (stereo not drawn) [Example 252, 2-((3,5-Dicyano-6-(4-(2,5-dioxopyrrolidin-1-yl)piperidin-1-yl)-4-ethylpyridin-2-yl)thio)-2-phenylacetamide] the “DNMT1 BioChemical (pIC50 category)” value (DNMT1; [2]) was “D (Category D: ≥6.5)” and the EC50 [1] was < 0.316 µM.

In the case of `CCc1c(C#N)c(SC(C(N)=O)c2ccccc2)nc(N2C[C@@H](O)[C@@H](O)C2)c1C#N` (stereo partly drawn) [Example 219, 2-((3,5-Dicyano-6-((3S,4R)-3,4-dihydroxypyrrolidin-1-yl)-4-ethylpyridin-2-yl)thio)-2-phenylacetamide], the IC50 (DNMT1; [3]) is reported as 0.316 to 1 µM and the EC50 [1] is reported as 1 to 31.6 µM.

For `CCc1c(C#N)c(SC(C(N)=O)c2ccccc2)nc(N(C)CCN(CC)CC)c1C#N` (stereo not drawn) [Example 515, 2-((3,5-dicyano-6-((2-(diethylamino)ethyl)(methyl)amino)-4-ethylpyridin-2-yl)thio)-2-phenylacetamide], the “DNMT1 BioChemical (pIC50 category)” value (DNMT1; [2]) was “D (Category D: ≥6.5)” and the EC50 [1] was < 0.316 µM.

For `CCc1c(C#N)c(SC(C(N)=O)c2ccccc2)nc(N2CC[C@@H](N(C)C)C2)c1C#N` (stereo partly drawn) [Example 536, 2-((3,5-dicyano-6-((R)-3-(dimethylamino)pyrrolidin-1-yl)-4-ethylpyridin-2-yl)thio)-2-phenylacetamide], the “DNMT1 BioChemical (pIC50 category)” value (DNMT1; [2]) was “D (Category D: ≥6.5)” and the EC50 [1] was 0.316 to 1 µM.
